# Experimental data from PubChem BioAssay (NCI).
#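 1) Cells in 96-well plates. 2) Compound, 48 h, 5 concentrations. 3) Linear interpolation between surrounding doses. 4) Unreached endpoint = highest concentration. GI50: concentration for 50% inhibition of growth. At the TGI there is no net growth.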
# What was measured:
# Experiment in all cases: DTP human tumour cell line panel, 48 h
# [1] = system: CAKI-1 renal
# [2] = system: UACC-257 melanoma
# [3] = system: NCI-H226 lung
# [4] = system: ACHN renal
# [5] = system: COLO 205 colon
# [6] = system: UO-31 renal
# [7] = system: MOLT-4 leukemia
# [8] = system: KM12 colon
# [9] = system: CCRF-CEM leukemia
# [10] = system: A549 NSCLC
# [11] = system: OVCAR-8 ovarian
# [12] = system: SK-MEL-28 melanoma
# [13] = system: DU-145 prostate
# [14] = system: SK-MEL-5 melanoma
# [15] = system: HT29 colon
# [16] = system: LOX IMVI melanoma
# [17] = system: NCI/ADR-RES ovarian
# [18] = system: SW-620 colon
# [19] = system: EKVX NSCLC
# [20] = system: NCI-H460 lung
# [21] = system: HOP-92 NSCLC
# [22] = system: OVCAR-5 ovarian
# [23] = system: T-47D breast
# [24] = system: NCI-H522 lung
# [25] = system: IGROV1 ovarian
# [26] = system: BT-549 breast
# [27] = system: HOP-62 NSCLC
# [28] = system: SNB-19 CNS
# [29] = system: HCT-116 colon
# [30] = system: TK-10 renal
# [31] = system: SN12C renal
# [32] = system: SF-539 CNS
# [33] = system: RXF 393 renal
# [34] = system: HS 578T breast
# [35] = system: MCF7 breast
# [36] = system: OVCAR-4 ovarian
# [37] = system: HCT-15 colon
# [38] = system: OVCAR-3 ovarian
# [39] = system: SF-268 CNS
# [40] = system: NCI-H23 lung
# [41] = system: RPMI-8226 leukemia
# [42] = system: MDA-MB-435
# [43] = system: MALME-3M melanoma
# [44] = system: MDA-MB-231 breast
# [45] = system: PC-3 prostate
# [46] = system: HCC-2998 colon
# [47] = system: K-562 leukemia
# [48] = system: SK-OV-3 ovarian
# [49] = system: 786-0 renal
# [50] = system: UACC-62 melanoma
# [51] = system: SF-295 CNS
# [52] = system: A498 renal
# [53] = system: U251 CNS
# [54] = system: SK-MEL-2 melanoma
# [55] = system: SNB-75 CNS
# [56] = system: M14 melanoma
# [57] = system: HL-60(TB) leukemia
# [58] = system: SR leukemia
structure (smiles),measurement,setting,value
COC(=O)C1=C(O)C(C(=O)OC)[C@@]2(O)[C@@H](C(=O)OC)C(c3ccccc3Cl)C[C@@H]1[C@@H]2C(=O)OC (some centres undefined),GI50,[1],3.47 µM
same,TGI,[1],11.2 µM
same,GI50,[2],15.9 µM
same,TGI,[2],38.8 µM
same,GI50,[3],3.77 µM
same,TGI,[3],15.1 µM
same,GI50,[4],5.96 µM
same,TGI,[4],23.4 µM
same,GI50,[5],14.1 µM
same,TGI,[5],31.5 µM
same,GI50,[6],6.14 µM
same,TGI,[6],19.8 µM
same,GI50,[7],3.31 µM
same,TGI,[7],20.7 µM
same,GI50,[8],6.5 µM
same,TGI,[8],21.2 µM
same,GI50,[9],1.64 µM
same,TGI,[9],5.12 µM
same,GI50,[10],9.04 µM
same,TGI,[10],53.9 µM
same,GI50,[11],5.81 µM
same,TGI,[11],34 µM
same,GI50,[12],7.16 µM
same,TGI,[12],30.4 µM
same,GI50,[13],14.9 µM
same,TGI,[13],32.9 µM
same,GI50,[14],11.1 µM
same,TGI,[14],24.2 µM
same,GI50,[15],6.28 µM
same,TGI,[15],32.6 µM
same,GI50,[16],4.43 µM
same,TGI,[16],17 µM
same,GI50,[17],3.16 µM
same,TGI,[17],15.9 µM
same,GI50,[18],5.46 µM
same,TGI,[18],21.9 µM
same,GI50,[19],19.4 µM
same,TGI,[19],38.3 µM
same,GI50,[20],10.7 µM
same,TGI,[20],> 100 µM
same,GI50,[21],16.1 µM
same,TGI,[21],54.2 µM
same,GI50,[22],15 µM
same,TGI,[22],32.4 µM
same,GI50,[23],11.6 µM
same,TGI,[23],40.3 µM
same,GI50,[24],3.16 µM
same,TGI,[24],12.8 µM
same,GI50,[25],3.52 µM
same,TGI,[25],13 µM
same,GI50,[26],7.65 µM
same,TGI,[26],33.8 µM
same,GI50,[27],10.4 µM
same,TGI,[27],23.8 µM
same,GI50,[28],16.2 µM
same,TGI,[28],39.5 µM
same,GI50,[29],1.97 µM
same,TGI,[29],4.12 µM
same,GI50,[30],10.3 µM
same,TGI,[30],25.4 µM
same,GI50,[31],3.96 µM
same,TGI,[31],19.8 µM
same,GI50,[32],14 µM
same,TGI,[32],36.7 µM
same,GI50,[33],4.37 µM
same,TGI,[33],35.4 µM
same,GI50,[34],10.1 µM
same,TGI,[34],43.7 µM
same,GI50,[35],5.24 µM
same,TGI,[35],> 100 µM
same,GI50,[36],3.44 µM
same,TGI,[36],13.8 µM
same,GI50,[37],4.7 µM
same,TGI,[37],18 µM
same,GI50,[38],4.48 µM
same,TGI,[38],16.1 µM
same,GI50,[39],14.5 µM
same,TGI,[39],65.3 µM
same,GI50,[40],9.79 µM
same,TGI,[40],23.3 µM
same,GI50,[41],1.88 µM
same,TGI,[41],6.2 µM
same,GI50,[42],3.09 µM
same,TGI,[42],8.82 µM
same,GI50,[43],10.6 µM
same,TGI,[43],29.9 µM
same,GI50,[44],6.56 µM
same,TGI,[44],20.7 µM
same,GI50,[45],5.88 µM
same,TGI,[45],36.5 µM
same,GI50,[46],14 µM
same,TGI,[46],28.6 µM
same,GI50,[47],3.76 µM
same,TGI,[47],> 100 µM
same,GI50,[48],23.6 µM
same,TGI,[48],63.4 µM
same,GI50,[49],5.22 µM
same,TGI,[49],19.5 µM
same,GI50,[50],2.53 µM
same,TGI,[50],6.89 µM
same,GI50,[51],7.05 µM
same,TGI,[51],23.8 µM
same,GI50,[52],14.2 µM
same,TGI,[52],32.4 µM
same,GI50,[53],3.76 µM
same,TGI,[53],15 µM
same,GI50,[54],3.62 µM
same,TGI,[54],17.7 µM
O=C(CSCC(=O)N/N=C/c1ccncc1)N/N=C/c1ccncc1,TGI,[1],> 100 µM
same,TGI,[2],> 100 µM
same,TGI,[3],> 100 µM
same,TGI,[4],> 100 µM
same,TGI,[6],> 100 µM
same,TGI,[7],> 100 µM
same,TGI,[8],> 100 µM
same,TGI,[9],> 100 µM
same,TGI,[10],> 100 µM
same,TGI,[55],> 100 µM
same,TGI,[11],> 100 µM
same,TGI,[12],> 100 µM
same,TGI,[13],> 100 µM
same,TGI,[14],> 100 µM
same,TGI,[15],> 100 µM
same,TGI,[16],> 100 µM
same,TGI,[17],> 100 µM
same,TGI,[18],> 100 µM
same,TGI,[19],> 100 µM
same,TGI,[20],> 100 µM
same,TGI,[21],> 100 µM
same,TGI,[22],> 100 µM
same,TGI,[23],> 100 µM
same,TGI,[24],> 100 µM
same,TGI,[25],> 100 µM
same,TGI,[26],> 100 µM
same,TGI,[27],> 100 µM
same,TGI,[28],> 100 µM
same,TGI,[29],> 100 µM
same,TGI,[30],> 100 µM
same,TGI,[31],> 100 µM
same,TGI,[32],> 100 µM
same,TGI,[33],> 100 µM
same,TGI,[34],> 100 µM
same,TGI,[35],> 100 µM
same,TGI,[56],> 100 µM
same,TGI,[36],> 100 µM
same,TGI,[37],> 100 µM
same,TGI,[38],> 100 µM
same,TGI,[39],> 100 µM
same,TGI,[40],> 100 µM
same,TGI,[41],> 100 µM
same,TGI,[42],> 100 µM
same,TGI,[43],> 100 µM
same,TGI,[44],> 100 µM
same,TGI,[45],> 100 µM
same,TGI,[46],> 100 µM
same,TGI,[47],> 100 µM
same,TGI,[57],> 100 µM
same,TGI,[48],> 100 µM
same,TGI,[49],> 100 µM
same,TGI,[50],> 100 µM
same,TGI,[51],> 100 µM
same,TGI,[52],> 100 µM
same,TGI,[53],> 100 µM
same,TGI,[54],> 100 µM
Nc1nc(Cl)c2ncn(Cc3ccc(-c4ccc(CCl)cc4)cc3)c2n1,GI50,[1],5.76 µM
same,TGI,[1],33.3 µM
same,GI50,[2],3.24 µM
same,TGI,[2],15.2 µM
same,GI50,[3],3.47 µM
same,TGI,[3],17.9 µM
same,GI50,[4],4.5 µM
same,TGI,[4],> 100 µM
same,GI50,[5],7.17 µM
same,TGI,[5],74.4 µM
same,GI50,[6],17.7 µM
same,TGI,[6],> 100 µM
same,GI50,[7],> 100 µM
same,TGI,[7],> 100 µM
same,GI50,[8],27.7 µM
same,TGI,[8],> 100 µM
same,GI50,[10],19.3 µM
same,TGI,[10],> 100 µM
same,GI50,[55],10.3 µM
same,TGI,[55],28.1 µM
same,GI50,[11],7.86 µM
same,TGI,[11],29.5 µM
same,GI50,[12],14.7 µM
same,TGI,[12],33.7 µM
same,GI50,[13],12.6 µM
same,TGI,[13],25.6 µM
same,GI50,[14],4.42 µM
same,TGI,[14],18.9 µM
same,GI50,[15],11.3 µM
same,TGI,[15],43.1 µM
same,GI50,[17],10.4 µM
same,TGI,[17],34.3 µM
same,GI50,[18],14.1 µM
same,TGI,[18],76.1 µM
same,GI50,[19],10.6 µM
same,TGI,[19],40.1 µM
same,GI50,[20],20.4 µM
same,TGI,[20],69.1 µM
same,GI50,[21],1.3 µM
same,TGI,[21],23.6 µM
same,GI50,[22],20.8 µM
same,TGI,[22],> 100 µM
same,GI50,[24],> 100 µM
same,TGI,[24],> 100 µM
same,GI50,[25],12.5 µM
same,TGI,[25],> 100 µM
same,GI50,[26],7.13 µM
same,TGI,[26],37.8 µM
same,GI50,[27],15 µM
same,TGI,[27],34.8 µM
same,GI50,[28],38.4 µM
same,TGI,[28],> 100 µM
same,GI50,[58],3.09 µM
same,TGI,[58],> 100 µM
same,GI50,[29],6.71 µM
same,TGI,[29],23.7 µM
same,GI50,[30],6.44 µM
same,TGI,[30],19.8 µM
same,GI50,[31],2.54 µM
same,TGI,[31],10.1 µM
same,GI50,[32],10.9 µM
same,TGI,[32],26.6 µM
same,GI50,[33],12.1 µM
same,TGI,[33],54.4 µM
same,GI50,[34],43.4 µM
same,TGI,[34],> 100 µM
same,GI50,[35],7.31 µM
same,TGI,[35],71.7 µM
same,GI50,[56],13.3 µM
same,TGI,[56],29.4 µM
same,GI50,[36],8.12 µM
same,TGI,[36],43.6 µM
same,GI50,[38],7.3 µM
same,TGI,[38],32 µM
same,GI50,[39],16.2 µM
same,TGI,[39],36.5 µM
same,GI50,[40],5.6 µM
same,TGI,[40],19.9 µM
same,GI50,[41],1.43 µM
same,TGI,[41],5.58 µM
same,GI50,[42],14.6 µM
same,TGI,[42],36.3 µM
same,GI50,[45],9.08 µM
same,TGI,[45],> 100 µM
same,GI50,[47],13.9 µM
same,TGI,[47],> 100 µM
same,GI50,[57],19.4 µM
same,TGI,[57],> 100 µM
same,GI50,[48],37.1 µM
same,TGI,[48],> 100 µM
same,GI50,[49],12.9 µM
same,TGI,[49],> 100 µM
same,GI50,[50],9.26 µM
same,TGI,[50],23 µM
same,GI50,[51],17.4 µM
same,TGI,[51],> 100 µM
same,GI50,[52],35.2 µM
same,TGI,[52],> 100 µM
same,GI50,[54],33.9 µM
same,TGI,[54],> 100 µM
